Assay results as given in ChEMBL document CHEMBL5365420, “Kinetics, Thermodynamics, and Structural Effects of Quinoline-2-Carboxylates, Zinc-Binding Inhibitors of New Delhi Metallo-β-lactamase-1 Re-sensitizing Multidrug-Resistant Bacteria for Carbapenems” (J Med Chem, 2023).

Key:
Klebsiella pneumoniae [1] = assay: Antibacterial activity against clinical isolate Klebsiella pneumoniae ST23213/19 expressing blaNDM-1 co-expressing blaOXA-48/blaSHV-11/blaCTX-M-15 and blaOXA-1 assessed as meropenem MIC at 72.88 uM measured after 20 hrs by broth microdilution assay (reference value: 24 mg/L); type: functional
Escherichia coli [2] = assay: Antibacterial activity against clinical isolate Escherichia coli ST1012/10 expressing blaNDM-1 co-expressing blaTEM-1/blaCTX-M-15/blaOXA-1 and blaOXA-2 assessed as meropenem MIC at 36.44 uM measured after 20 hrs by broth microdilution assay (reference value: 12 mg/L); type: functional
Klebsiella pneumoniae [3] = assay: Antibacterial activity against clinical isolate Klebsiella pneumoniae 50/11 expressing blaNDM-1 co-expressing blaTEM-1/blaSHV-28/blaTEM-1/blaCTX-M-15 and blaOXA-1 assessed as meropenem MIC at 72.88 uM measured after 20 hrs by broth microdilution assay (reference value: 24 mg/L); type: functional
[4] = biological target: T1, 72 kDa type IV collagenase (Homo sapiens, UniProt P08253); assay: Binding affinity to human recombinant MMP-2 CD assessed as inhibition constant using OMNIMMP as substrate incubated for 30 mins by fluorescence based analysis
Target sequence in this assay (P08253 whole entry): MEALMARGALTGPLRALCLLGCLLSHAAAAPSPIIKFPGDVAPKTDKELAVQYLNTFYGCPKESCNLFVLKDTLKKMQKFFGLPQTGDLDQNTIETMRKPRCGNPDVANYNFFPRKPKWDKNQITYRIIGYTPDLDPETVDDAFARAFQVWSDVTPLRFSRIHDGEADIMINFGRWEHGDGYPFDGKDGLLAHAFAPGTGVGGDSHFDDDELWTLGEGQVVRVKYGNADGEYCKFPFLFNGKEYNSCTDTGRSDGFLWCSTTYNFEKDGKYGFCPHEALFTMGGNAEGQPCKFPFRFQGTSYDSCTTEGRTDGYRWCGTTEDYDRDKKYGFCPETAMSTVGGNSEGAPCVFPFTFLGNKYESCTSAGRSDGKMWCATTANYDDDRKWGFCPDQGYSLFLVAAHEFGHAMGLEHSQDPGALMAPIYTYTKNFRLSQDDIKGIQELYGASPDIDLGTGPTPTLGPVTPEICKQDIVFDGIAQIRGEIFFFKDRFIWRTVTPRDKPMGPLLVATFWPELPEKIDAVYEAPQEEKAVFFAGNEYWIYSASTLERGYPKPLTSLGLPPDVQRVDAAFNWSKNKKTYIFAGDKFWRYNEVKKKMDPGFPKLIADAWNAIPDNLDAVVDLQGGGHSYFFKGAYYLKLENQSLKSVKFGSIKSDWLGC

[5] = Inhibition of IMP-1 (unknown origin) expressed in Escherichia coli BL21-DE3 incubated for 15 mins by absorbance based microplate reader analysis; parameters: species or system Bacteria
Escherichia coli [6] = assay: Antibacterial activity against clinical isolate Escherichia coli 371/12 expressing blaNDM-7 co-expressing blaCTX-M-15 and blaOXA-1 assessed as meropenem MIC at 72.88 uM measured after 20 hrs by broth microdilution assay (reference value: 24 mg/L); type: functional
[7] = Inhibition of VIM-2 (unknown origin) incubated for 15 mins by absorbance based microplate reader analysis; parameters: species or system Bacteria
Escherichia coli [8] = assay: Antibacterial activity against clinical isolate Escherichia coli 371/12 expressing blaNDM-7 co-expressing blaCTX-M-15 and blaOXA-1 assessed as meropenem MIC at 36.44 uM measured after 20 hrs by broth microdilution assay (reference value: 12 mg/L); type: functional
[9] = biological target: Metallo-beta-lactamase type 2 (Bacteria) (UniProt C7C422)
Sequence of Metallo-beta-lactamase type 2 (Bacteria) (C7C422 whole entry): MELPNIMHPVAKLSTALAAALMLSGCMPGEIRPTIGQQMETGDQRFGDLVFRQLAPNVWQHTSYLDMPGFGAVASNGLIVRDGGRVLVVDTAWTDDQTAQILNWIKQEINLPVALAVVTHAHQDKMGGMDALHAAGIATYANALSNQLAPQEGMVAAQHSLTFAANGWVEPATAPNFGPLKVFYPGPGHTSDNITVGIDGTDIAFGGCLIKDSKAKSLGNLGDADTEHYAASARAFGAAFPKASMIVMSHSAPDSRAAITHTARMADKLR
Description: Binding affinity to C-terminal 6His-tagged full length truncated NDM-1 (unknown origin) expressed in Escherichia coli BL21-DE3 assessed as change in Gibbs free energy by isothermal titration calorimetric analysis

[10] = biological target: Metallo-beta-lactamase type 2 (Bacteria, UniProt C7C422)
Sequence of Metallo-beta-lactamase type 2 (C7C422 whole entry): as above
Description: Binding affinity to C-terminal 6His-tagged full length truncated NDM-1 (unknown origin) expressed in Escherichia coli BL21-DE3 assessed as dissociation constant by isothermal titration calorimetric analysis

[11] = biological target: Metallo-beta-lactamase type 2 (Bacteria) (UniProt C7C422); remark: listed apart in the source
Description: Binding affinity to C-terminal 6His-tagged full length truncated NDM-1 (unknown origin) expressed in Escherichia coli BL21-DE3 assessed as change in enthalpy in presence of EDTA by isothermal titration calorimetric analysis

Escherichia coli [12] = assay: Antibacterial activity against clinical isolate Escherichia coli K12 J53-ST10 696/17 expressing blaNDM-1 co-expressing blaCMY-4 assessed as meropenem MIC at 36.44 uM measured after 20 hrs by broth microdilution assay (reference value: 12 mg/L); type: functional
[13] = biological target: T1, 72 kDa type IV collagenase; assay: Inhibition of human recombinant MMP-2 CD at 10 uM using OMNIMMP as substrate incubated for 30 mins by fluorescence based analysis relative to control
Target sequence in this assay (P08253 110-660 limits assumed): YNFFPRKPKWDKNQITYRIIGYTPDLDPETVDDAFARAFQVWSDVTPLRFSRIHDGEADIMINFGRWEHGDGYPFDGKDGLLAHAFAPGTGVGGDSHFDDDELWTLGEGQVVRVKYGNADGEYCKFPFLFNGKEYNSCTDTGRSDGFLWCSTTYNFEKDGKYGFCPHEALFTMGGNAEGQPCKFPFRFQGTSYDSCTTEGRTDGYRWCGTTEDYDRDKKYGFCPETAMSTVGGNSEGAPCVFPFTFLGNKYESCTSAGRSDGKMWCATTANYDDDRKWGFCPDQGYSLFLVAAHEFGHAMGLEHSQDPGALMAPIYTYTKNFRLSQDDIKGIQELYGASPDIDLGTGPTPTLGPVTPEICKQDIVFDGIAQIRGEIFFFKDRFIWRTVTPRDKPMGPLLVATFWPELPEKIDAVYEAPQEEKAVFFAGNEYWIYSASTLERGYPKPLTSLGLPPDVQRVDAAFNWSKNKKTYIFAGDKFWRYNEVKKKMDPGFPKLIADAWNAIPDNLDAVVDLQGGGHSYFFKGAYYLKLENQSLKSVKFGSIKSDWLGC

## O=C(O)c1ccc2cccc(NS(=O)(=O)c3ccccn3)c2n1
Klebsiella pneumoniae [1]
  MIC: 16 µg/mL
Escherichia coli [2]
  MIC: ≤ 0.125 µg/mL
Klebsiella pneumoniae [3]
  MIC: ≤ 0.125 µg/mL
[4]
  Ki: 5780 nM
[5]
  IC50: 370 nM
Escherichia coli [6]
  MIC: ≤ 0.125 µg/mL
[7]
  IC50: 240 nM
Escherichia coli [8]
  MIC: 8 µg/mL
[9]
  deltaG: -9.54 kcal/mol
[10]
  Kd: 105 nM
[11]
  deltaH: -9.56 kcal/mol
Escherichia coli [12]
  MIC: ≤ 0.125 µg/mL
[13]
  inhibition: > 90%
